Assay results from patent publication US11590129B2, “Combination therapy with an antitumor alkaloid” (PHARMA MAR, S.A., priority 2010, dated 2023).
Like-named read-outs stand apart in the source and are kept apart here.

Assays:
[1] = test system: A549 human lung carcinoma cell line; assay: MTT cytotoxicity assay in A549 cells: IC50 of single agents and combinations with PM01183; type: cell-based; conditions: Homo sapiens
Experimental: (§1) Additional serial dilutions were prepared in serum-free culture medium to achieve a final 4× concentration. Aliquots of 50 μL of each diluted compound were added per well.
A549 was the human lung carcinoma cell line selected for this assay.
(§2) a. […] Briefly, cells were harvested and seeded in 96 well microtiter plates at a density of 5,000 cells in 150 μL of culture medium and incubated for 24 hours in drug-free medium before treatment with vehicle alone or test compounds for 72 h.
(§3) The cytotoxic effect was measured by the MTT reduction assay, in which 3-(4,5-Dimethylthiazol-2-yl)-2,5-diphenyltetrazolium bromide, a tetrazole, which is reduced to purple formazan in the mitochondria of living cells, was used. MTT (50 μL of 1 mg/mL stock solution) was added to the wells and incubated for 8 hours at 37° C. until formazan crystals were formed. After gently removing the culture medium, DMSO was added to dissolve the insoluble purple formazan product into a colored solution. […] Results were expressed as percentage of control cell growth.
(§4) b. In a second set of assays, A549 human tumor cells were incubated with PM01183 in combination with each of the agents mentioned above.
(§5) As a visual aid, response values were plotted on a scatter plot with dose ratios given on the x-axis and % response values on the y-axis. […] In cases where response values at the two endpoints were approximately equivalent, points lying above or below this predicted line of additivity could be interpreted as representing antagonistic or synergistic drug interaction, respectively.

[2] = test system: IGROV-1 human ovarian adenocarcinoma cell line; assay: cells; conditions: Homo sapiens, IGROV-1, 72 h
Experimental: as §2, §3, §4, §5, §1
IGROV-1 was the human ovarian adenocarcinoma cell line selected for this assay.

[3] = test system: MDA-MB-231 human breast adenocarcinoma cell line; assay: cells; conditions: Homo sapiens, MDA-MB-231, 72 h
Experimental: as §2, §3, §4, §5, §1

[4] = test system: A673 human rhabdomyosarcoma cell line; assay: cells; conditions: Homo sapiens, A673, 72 h
Experimental: as §2, §3, §4, §5, §1
A673 was the human rhabdomyosarcoma cell line selected for this assay.

[5] = test system: HGC-27 human gastric carcinoma cell line; assay: cells; conditions: Homo sapiens, HGC-27, 72 h
Experimental: as §2, §3, §4, §5, §1
HGC-27 was the human gastric carcinoma cell line selected for this assay.

[6] = test system: HepG2 human hepatocellular liver carcinoma cell line; assay: MTT cytotoxicity assay in HepG2 cells: IC50 of single agents and combinations with PM01183; type: cell-based; conditions: Homo sapiens
Experimental: as §2, §3, §4, §5, §1
HepG2 was the human hepatocellular liver carcinoma cell line selected for this assay.

[7] = test system: RXF-393 human kidney carcinoma cell line; assay: cells; conditions: Homo sapiens, RXF 393, 72 h
Experimental: as §2, §3, §4, §5, §1

[8] = test system: HT-29 human colon adenocarcinoma cell line; assay: cells; conditions: Homo sapiens, HT-29, 72 h
Experimental: as §2, §3, §4, §5, §1
HT-29 was the human colon adenocarcinoma cell line selected for this assay.

[9] = test system: PC-3 human prostate cancer cell line; assay: cells; conditions: Homo sapiens, PC-3, 72 h
Experimental: as §2, §3, §4, §5, §1
PC-3 was the human prostate adenocarcinome cell line selected for this assay.

[10] = test system: U87-MG human glioblastoma cell line; assay: cells; conditions: Homo sapiens, U-87 MG, 72 h
Experimental: as §2, §3, §4, §5, §1
U87-MG was the human glioblastoma cell line selected for this assay.

[11] = A549, 72 hours drug exposure, MTT, read-out: IC50

IC50 [10]	SMILES	IC50 [1, 11]	IC50 [2]	IC50 [3]	IC50 ([1]; A549, 72 h)	IC50 [4]	IC50 [5]	IC50 ([6]; HepG2, 72 h)	IC50 [7]	IC50 [8]	IC50 [9]	IC50 ([6]; HepG2, 72 hours drug exposure, MTT, read-out: IC50)
–	O=NN(CCCl)C(=O)NCCCl [Carmustine, carmustine]	1000 µM	712 µM	900 µM	–	–	–	–	–	–	–	–
–	O=P1(N(CCCl)CCCl)NCCCO1 (stereo not drawn) [Cyclophosphamide, cyclophosphamide]	–	1000 µM	1000 µM	1000 µM	1000 µM	1000 µM	1000 µM	1000 µM	1000 µM	–	–
0.1 µM	CC(=O)O[C@@]12CO[C@@H]1C[C@H](O)[C@@]1(C)C(=O)[C@H](O)C3=C(C)[C@@H](OC(=O)[C@H](O)[C@@H](NC(=O)OC(C)(C)C)c4ccccc4)C[C@@](O)([C@@H](OC(=O)c4ccccc4)[C@H]21)C3(C)C [Docetaxel, docetaxel]	0.003 µM	0.0501 µM	0.0025 µM	–	0.00065 µM	–	–	0.000594 µM	0.00032 µM	0.0186 µM	0.5 µM
–	CC(C)C(=O)Nc1ccc([N+](=O)[O-])c(C(F)(F)F)c1 [Flutamide, flutamide]	–	–	–	–	–	–	–	–	–	49 µM	–
